Measured values reported in US20200239530A1, “COMPOUNDS AND METHODS OF MODULATING PROTEIN DEGRADATION” (Vividion Therapeutics, Inc., priority 2017, published 2020).
Read-outs that look alike come from different tables or passages of the source. Values belong to the compound of their own block, whether it stands above or below them.

What was measured:
Experiment in all cases: Cysteine liganding, probe competition
Type in all cases: binding
UniProt Q13049 = biological target: T1, UniProt Q13049 (Homo sapiens, UniProt Q13049)
T1 construct: 200 μL of lysate containing 5 mg/ml proteome was treated with 2 μL of 100× compound stock; endogenous in cells
T1 sequence (Q13049 whole entry, change not shown): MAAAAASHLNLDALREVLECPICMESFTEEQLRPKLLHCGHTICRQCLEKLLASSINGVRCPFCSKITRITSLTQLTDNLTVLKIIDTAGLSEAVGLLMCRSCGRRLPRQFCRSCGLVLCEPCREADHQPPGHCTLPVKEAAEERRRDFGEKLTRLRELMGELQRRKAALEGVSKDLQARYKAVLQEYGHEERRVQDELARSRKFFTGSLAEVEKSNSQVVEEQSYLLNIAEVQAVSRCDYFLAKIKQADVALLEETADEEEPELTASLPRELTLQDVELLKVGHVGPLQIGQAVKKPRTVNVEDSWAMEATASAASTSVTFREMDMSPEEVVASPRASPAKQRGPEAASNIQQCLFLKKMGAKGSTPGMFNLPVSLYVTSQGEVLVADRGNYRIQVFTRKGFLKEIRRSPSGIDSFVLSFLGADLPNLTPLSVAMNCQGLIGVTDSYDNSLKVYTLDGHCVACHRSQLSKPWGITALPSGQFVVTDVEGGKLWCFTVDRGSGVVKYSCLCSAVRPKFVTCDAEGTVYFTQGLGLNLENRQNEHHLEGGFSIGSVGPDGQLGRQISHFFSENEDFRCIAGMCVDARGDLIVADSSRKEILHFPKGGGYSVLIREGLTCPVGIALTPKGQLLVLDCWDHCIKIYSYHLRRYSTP
Source text: (§1) The following 96-well sample prep protocol was used for sample preparation.

UniProt Q6VVB1 = biological target: T2, UniProt Q6VVB1 (Homo sapiens, UniProt Q6VVB1)
T2 construct: Cells were resuspended in cold PBS on ice and sonicated with a probe sonicator to achieve lysis; endogenous in cells
T2 sequence (Q6VVB1 whole entry, change not shown): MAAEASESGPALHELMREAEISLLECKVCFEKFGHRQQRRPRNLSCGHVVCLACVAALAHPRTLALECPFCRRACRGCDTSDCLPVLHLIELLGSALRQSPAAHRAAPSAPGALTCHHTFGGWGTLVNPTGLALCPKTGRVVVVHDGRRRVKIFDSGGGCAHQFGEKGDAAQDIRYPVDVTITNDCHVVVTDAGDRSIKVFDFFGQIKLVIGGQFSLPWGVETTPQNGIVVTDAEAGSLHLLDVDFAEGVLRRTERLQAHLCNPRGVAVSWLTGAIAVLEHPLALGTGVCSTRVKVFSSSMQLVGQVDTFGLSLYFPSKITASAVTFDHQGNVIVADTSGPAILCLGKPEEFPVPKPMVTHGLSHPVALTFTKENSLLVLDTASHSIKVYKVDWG
Source text: as §1

UniProt Q9H0F5 = biological target: T3, UniProt Q9H0F5 (Homo sapiens, UniProt Q9H0F5); conditions: for percent_inhibition / inhibition at 500 µM: 500 uM
T3 construct: 200 μL of lysate containing 5 mg/ml proteome was treated with 2 μL of 100× compound stock; endogenous in cells
T3 sequence (Q9H0F5 whole entry, change not shown): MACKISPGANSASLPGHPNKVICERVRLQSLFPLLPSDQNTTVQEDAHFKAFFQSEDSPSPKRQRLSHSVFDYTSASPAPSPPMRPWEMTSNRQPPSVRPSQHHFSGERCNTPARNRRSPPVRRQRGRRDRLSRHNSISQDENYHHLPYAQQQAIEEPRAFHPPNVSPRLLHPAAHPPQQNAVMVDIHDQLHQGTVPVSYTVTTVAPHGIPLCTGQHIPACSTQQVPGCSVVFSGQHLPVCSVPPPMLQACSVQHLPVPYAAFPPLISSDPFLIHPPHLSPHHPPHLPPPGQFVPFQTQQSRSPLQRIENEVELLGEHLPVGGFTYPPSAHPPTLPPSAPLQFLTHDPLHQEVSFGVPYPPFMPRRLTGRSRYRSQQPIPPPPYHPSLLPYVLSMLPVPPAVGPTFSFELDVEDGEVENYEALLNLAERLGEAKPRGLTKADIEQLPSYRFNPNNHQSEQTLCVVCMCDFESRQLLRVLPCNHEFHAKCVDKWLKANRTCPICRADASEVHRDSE
Source text: as §1

UniProt Q8TEL6 = biological target: T4, UniProt Q8TEL6 (Homo sapiens, UniProt Q8TEL6)
T4 construct: 200 μL of lysate containing 5 mg/ml proteome was treated with 2 μL of 100× compound stock; endogenous in cells
T4 sequence (Q8TEL6 1-797): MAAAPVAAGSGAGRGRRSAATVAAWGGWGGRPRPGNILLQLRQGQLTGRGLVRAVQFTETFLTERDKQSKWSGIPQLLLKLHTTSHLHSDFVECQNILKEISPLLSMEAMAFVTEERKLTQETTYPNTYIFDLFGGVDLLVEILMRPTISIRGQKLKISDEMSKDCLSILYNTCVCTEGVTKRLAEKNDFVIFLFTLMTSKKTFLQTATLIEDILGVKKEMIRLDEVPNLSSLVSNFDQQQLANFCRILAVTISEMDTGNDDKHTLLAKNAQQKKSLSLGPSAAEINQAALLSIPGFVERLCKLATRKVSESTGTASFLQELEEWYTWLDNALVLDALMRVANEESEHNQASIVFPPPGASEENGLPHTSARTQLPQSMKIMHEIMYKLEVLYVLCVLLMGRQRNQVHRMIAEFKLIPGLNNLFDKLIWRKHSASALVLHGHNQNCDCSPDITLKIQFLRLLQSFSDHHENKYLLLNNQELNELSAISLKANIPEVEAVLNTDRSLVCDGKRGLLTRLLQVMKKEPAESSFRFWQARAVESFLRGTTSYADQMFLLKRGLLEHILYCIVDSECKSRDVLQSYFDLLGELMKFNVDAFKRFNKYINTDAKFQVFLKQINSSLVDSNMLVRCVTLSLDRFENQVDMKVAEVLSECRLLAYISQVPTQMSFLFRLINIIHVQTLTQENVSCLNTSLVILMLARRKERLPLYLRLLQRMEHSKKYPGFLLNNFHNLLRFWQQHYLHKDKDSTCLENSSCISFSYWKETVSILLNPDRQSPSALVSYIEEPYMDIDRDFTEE
Source text: as §1

UniProt Q96EX2 = biological target: T5, UniProt Q96EX2 (Homo sapiens, UniProt Q96EX2); conditions: for inhibition at 100 µM / inhibition at 500 µM: read-out: percent_inhibition
T5 construct: 200 μL of lysate containing 5 mg/ml proteome was treated with 2 μL of 100× compound stock; endogenous in cells
T5 sequence (Q96EX2 1-444): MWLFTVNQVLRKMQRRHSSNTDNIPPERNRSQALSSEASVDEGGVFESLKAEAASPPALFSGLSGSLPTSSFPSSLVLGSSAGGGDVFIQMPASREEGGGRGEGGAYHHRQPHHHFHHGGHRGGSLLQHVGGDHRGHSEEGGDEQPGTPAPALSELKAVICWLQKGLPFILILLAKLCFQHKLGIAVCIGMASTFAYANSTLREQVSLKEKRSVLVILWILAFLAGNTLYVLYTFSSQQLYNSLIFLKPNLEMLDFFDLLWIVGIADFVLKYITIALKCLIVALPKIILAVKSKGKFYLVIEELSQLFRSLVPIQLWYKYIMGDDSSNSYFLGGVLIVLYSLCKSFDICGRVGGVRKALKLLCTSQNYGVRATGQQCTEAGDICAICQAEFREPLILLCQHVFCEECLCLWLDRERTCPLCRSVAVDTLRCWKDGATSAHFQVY
Source text: as §1

UniProt P63208 = biological target: T6, UniProt P63208 (Homo sapiens, UniProt P63208); conditions: for percent_inhibition: 100 uM; for inhibition at 100 µM: read-out: percent_inhibition
T6 construct: 200 μL of lysate containing 5 mg/ml proteome was treated with 2 μL of 100× compound stock; endogenous in cells
T6 sequence (P63208 whole entry, change not shown): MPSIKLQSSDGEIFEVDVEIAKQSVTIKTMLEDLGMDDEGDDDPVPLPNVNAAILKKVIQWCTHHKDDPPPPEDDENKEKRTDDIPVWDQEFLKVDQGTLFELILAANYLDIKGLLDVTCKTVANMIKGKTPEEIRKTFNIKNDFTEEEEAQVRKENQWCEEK
Source text: as §1

UniProt Q9Y2Z0 = biological target: T7, UniProt Q9Y2Z0 (Homo sapiens, UniProt Q9Y2Z0); conditions: read-out: percent_inhibition
T7 construct: 200 μL of lysate containing 5 mg/ml proteome was treated with 2 μL of 100× compound stock; endogenous in cells
T7 sequence (Q9Y2Z0 whole entry, change not shown): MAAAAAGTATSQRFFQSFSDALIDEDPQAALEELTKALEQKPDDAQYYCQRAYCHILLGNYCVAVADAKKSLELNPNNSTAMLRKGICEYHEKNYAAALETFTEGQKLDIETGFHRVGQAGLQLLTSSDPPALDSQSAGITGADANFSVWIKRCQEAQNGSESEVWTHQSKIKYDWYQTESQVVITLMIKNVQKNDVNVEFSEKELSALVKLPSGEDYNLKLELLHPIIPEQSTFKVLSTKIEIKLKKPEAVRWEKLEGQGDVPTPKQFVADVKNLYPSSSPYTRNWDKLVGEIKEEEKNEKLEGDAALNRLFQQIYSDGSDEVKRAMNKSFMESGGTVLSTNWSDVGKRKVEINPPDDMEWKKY
Source text: as §1

UniProt Q86SE9 = biological target: T8, UniProt Q86SE9 (Homo sapiens, UniProt Q86SE9)
T8 construct: 200 μL of lysate containing 5 mg/ml proteome was treated with 2 μL of 100× compound stock; endogenous in cells
T8 sequence (Q86SE9 whole entry, change not shown): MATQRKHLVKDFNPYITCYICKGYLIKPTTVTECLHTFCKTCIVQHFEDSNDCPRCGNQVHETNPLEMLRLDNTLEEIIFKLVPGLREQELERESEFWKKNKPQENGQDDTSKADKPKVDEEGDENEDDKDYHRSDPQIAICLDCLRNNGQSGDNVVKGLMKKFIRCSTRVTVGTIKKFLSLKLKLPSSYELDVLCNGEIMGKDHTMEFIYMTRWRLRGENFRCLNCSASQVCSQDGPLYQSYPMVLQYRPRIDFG
Source text: as §1

UniProt O43164 = biological target: T9, UniProt O43164 (Homo sapiens, UniProt O43164)
T9 construct: 200 μL of lysate containing 5 mg/ml proteome was treated with 2 μL of 100× compound stock; endogenous in cells
T9 sequence (O43164 whole entry, change not shown): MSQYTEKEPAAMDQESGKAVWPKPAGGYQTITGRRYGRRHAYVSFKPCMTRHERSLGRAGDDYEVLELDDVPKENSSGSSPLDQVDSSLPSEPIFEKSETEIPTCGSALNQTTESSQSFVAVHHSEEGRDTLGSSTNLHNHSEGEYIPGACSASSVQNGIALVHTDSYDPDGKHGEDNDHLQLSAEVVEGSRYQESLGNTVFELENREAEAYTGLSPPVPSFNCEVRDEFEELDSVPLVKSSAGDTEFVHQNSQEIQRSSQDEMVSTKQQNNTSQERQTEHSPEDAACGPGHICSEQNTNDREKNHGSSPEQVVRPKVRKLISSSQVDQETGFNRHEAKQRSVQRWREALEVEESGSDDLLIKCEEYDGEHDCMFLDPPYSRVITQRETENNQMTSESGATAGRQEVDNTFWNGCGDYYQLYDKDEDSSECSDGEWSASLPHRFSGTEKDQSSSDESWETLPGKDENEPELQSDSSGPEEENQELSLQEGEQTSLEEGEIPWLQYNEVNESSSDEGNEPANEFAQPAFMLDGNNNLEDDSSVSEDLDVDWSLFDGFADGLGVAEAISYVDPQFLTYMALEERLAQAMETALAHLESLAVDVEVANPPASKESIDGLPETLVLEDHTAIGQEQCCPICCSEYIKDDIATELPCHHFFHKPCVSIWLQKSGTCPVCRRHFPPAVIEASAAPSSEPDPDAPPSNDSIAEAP
Source text: as §1

UniProt Q8WV22 = biological target: T10, UniProt Q8WV22 (Homo sapiens, UniProt Q8WV22)
T10 construct: Cells were resuspended in cold PBS on ice and sonicated with a probe sonicator to achieve lysis; endogenous in cells
T10 sequence (Q8WV22 1-266): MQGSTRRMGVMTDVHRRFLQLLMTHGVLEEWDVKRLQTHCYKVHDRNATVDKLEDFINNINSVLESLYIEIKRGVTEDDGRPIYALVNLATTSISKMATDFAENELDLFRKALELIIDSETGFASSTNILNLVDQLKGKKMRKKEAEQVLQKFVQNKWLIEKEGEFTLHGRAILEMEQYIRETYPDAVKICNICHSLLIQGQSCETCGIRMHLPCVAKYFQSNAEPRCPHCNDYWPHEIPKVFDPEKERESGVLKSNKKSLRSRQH
Source text: as §1

UniProt Q9C026 = biological target: T11, UniProt Q9C026 (Homo sapiens, UniProt Q9C026)
T11 construct: 200 μL of lysate containing 5 mg/ml proteome was treated with 2 μL of 100× compound stock; endogenous in cells
T11 sequence (Q9C026 whole entry, change not shown): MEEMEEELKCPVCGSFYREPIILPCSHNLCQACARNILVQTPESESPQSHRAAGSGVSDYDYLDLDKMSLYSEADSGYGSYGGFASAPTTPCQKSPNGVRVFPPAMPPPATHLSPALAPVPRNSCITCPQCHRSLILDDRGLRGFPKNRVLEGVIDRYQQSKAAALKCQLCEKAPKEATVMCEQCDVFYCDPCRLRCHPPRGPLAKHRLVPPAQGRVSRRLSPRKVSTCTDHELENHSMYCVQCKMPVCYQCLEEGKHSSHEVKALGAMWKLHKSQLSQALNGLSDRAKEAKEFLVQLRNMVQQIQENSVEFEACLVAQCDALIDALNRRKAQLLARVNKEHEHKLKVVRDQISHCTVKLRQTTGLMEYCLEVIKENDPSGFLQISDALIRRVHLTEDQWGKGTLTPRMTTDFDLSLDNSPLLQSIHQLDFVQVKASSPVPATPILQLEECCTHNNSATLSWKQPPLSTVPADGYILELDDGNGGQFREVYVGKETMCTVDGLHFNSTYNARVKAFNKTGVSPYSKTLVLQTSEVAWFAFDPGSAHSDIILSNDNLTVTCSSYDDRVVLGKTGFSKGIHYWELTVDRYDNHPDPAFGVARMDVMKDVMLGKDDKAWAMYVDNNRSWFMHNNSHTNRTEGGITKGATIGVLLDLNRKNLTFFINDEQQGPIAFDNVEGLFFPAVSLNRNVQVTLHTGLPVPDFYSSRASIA
Source text: as §1

UniProt O43791 = biological target: T12, UniProt O43791 (Homo sapiens, UniProt O43791)
T12 construct: 200 μL of lysate containing 5 mg/ml proteome was treated with 2 μL of 100× compound stock; endogenous in cells
T12 sequence (O43791 whole entry, change not shown): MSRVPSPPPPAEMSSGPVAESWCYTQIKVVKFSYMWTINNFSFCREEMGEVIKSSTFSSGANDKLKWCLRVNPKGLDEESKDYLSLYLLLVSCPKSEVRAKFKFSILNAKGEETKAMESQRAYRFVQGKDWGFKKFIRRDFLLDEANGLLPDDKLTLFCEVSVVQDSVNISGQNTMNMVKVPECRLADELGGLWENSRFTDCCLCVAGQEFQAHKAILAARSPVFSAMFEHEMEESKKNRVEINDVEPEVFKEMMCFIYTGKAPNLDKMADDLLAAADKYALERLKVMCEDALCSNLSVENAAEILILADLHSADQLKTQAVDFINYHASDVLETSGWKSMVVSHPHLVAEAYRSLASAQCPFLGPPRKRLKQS
Source text: as §1

[1] = read-out: KB05_100 uM_percent_inhibition
[2] = 500 uM, read-out: KB05_500 uM_percent_inhibition
[3] = 100 uM, read-out: KB05_100 uM_percent_inhibition

inhibition at 100 µM (UniProt Q13049; [1]): 5%
inhibition at 500 µM (UniProt Q6VVB1; read-out: KB05_500 uM_percent_inhibition): 15%
percent_inhibition (UniProt Q9H0F5): 10%
inhibition at 500 µM (UniProt Q9H0F5; read-out: percent_inhibition): 16%
KB05_500 uM_percent_inhibition (UniProt Q8TEL6; 500 uM): 61%
inhibition at 500 µM (UniProt Q8TEL6; [2]): 77%
inhibition at 100 µM (UniProt Q96EX2): 17%
percent_inhibition (UniProt Q96EX2; 500 uM): 29%
inhibition at 500 µM (UniProt Q96EX2; 500 uM): 16%
percent_inhibition (UniProt P63208): 14%
inhibition at 100 µM (UniProt P63208): 15%
inhibition at 100 µM (UniProt Q9Y2Z0): 31%
inhibition at 100 µM (UniProt Q86SE9; [3]): 9%
KB05_500 uM_percent_inhibition (UniProt Q86SE9; 500 uM): 58%
inhibition at 500 µM (UniProt Q86SE9; [2]): 53%
inhibition at 100 µM (UniProt O43164; [1]): 1%
inhibition at 100 µM (UniProt Q8WV22; [3]): 13%
KB05_500 uM_percent_inhibition (UniProt Q8WV22; 500 uM): 66%
inhibition at 500 µM (UniProt Q8WV22; [2]): 64%
Structure (SMILES): C=CC(=O)N(c1ccccc1)c1ccc(Br)cc1 [KB05]

Structure (SMILES): COc1ccc2c(c1)CCCN2C(=O)CCl [KB02]
KB02_500 uM_percent_inhibition (UniProt Q9C026; 500 uM): 69%
inhibition at 500 µM (UniProt Q9C026; 500 uM, read-out: KB02_500 uM_percent_inhibition): 64%
inhibition at 500 µM (UniProt Q6VVB1; read-out: KB02_500 uM_percent_inhibition): 9%
inhibition at 100 µM (UniProt Q9H0F5; 100 uM, read-out: percent_inhibition): 44%
percent_inhibition (UniProt Q9H0F5): 42%
inhibition at 500 µM (UniProt Q9H0F5; read-out: percent_inhibition): 24%
inhibition at 100 µM (UniProt Q8TEL6; 100 uM, read-out: KB02_100 uM_percent_inhibition): 1%
inhibition at 100 µM (UniProt Q96EX2): 44%
inhibition at 500 µM (UniProt Q96EX2; 500 uM): 42%
percent_inhibition (UniProt P63208): 18%
inhibition at 100 µM (UniProt P63208): 13%
inhibition at 100 µM (UniProt Q9Y2Z0): 20%
inhibition at 100 µM (UniProt O43791; read-out: percent_inhibition): 49%

Structure (SMILES): O=C(CCl)Nc1cc(C(F)(F)F)cc(C(F)(F)F)c1 [KBO3]
KB03_100 uM_percent_inhibition (UniProt Q13049; 100 uM): 14%
KB03_100 uM_percent_inhibition (UniProt Q9C026; 100 uM): 13%
percent_inhibition (UniProt O43791; 100 uM): 57%
KB03_100 uM_percent_inhibition (UniProt Q86SE9; 100 uM): 25%
KB03_100 uM_percent_inhibition (UniProt O43164; 100 uM): 22%
KB03_100 uM_percent_inhibition (UniProt Q8WV22; 100 uM): 2%
